Results: US10131652B2, “Pyrimidinyloxy benzene derivatives as herbicides” (E. I. DU PONT DE NEMOURS AND COMPANY, priority 2014, dated 2018)

What was measured:
Test in all cases: Test D pre-/postemergence plant response
Format in all cases: in vivo
[1] = system: Italian ryegrass (Lolium multiflorum); details: Postemergence; for Plant response rating, Ryegrass, Italian: scale 0 to 100, 0 no effect, 100 complete control
Outline: (§1)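 Sown seed (loam/sand soil) treated preemergence; emerged plants, 1- to 4-leaf stage and 2 to 18 cm, treated postemergence in peat/vermiculite medium. Greenhouse incubation 13–15 d. Endpoint: visual 0–100 rating versus untreated.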

[2] = system: barnyardgrass (Echinochloa crus-galli); details: Postemergence; for Barnyardgrass plant response rating: scale 0 to 100 (0 no effect, 100 complete control); for Plant response rating, Barnyardgrass: scale 0 to 100, 0 no effect, 100 complete control
Outline: as §1

[3] = system: blackgrass (Alopecurus myosuroides); details: Postemergence; for Blackgrass plant response rating: scale 0 to 100 (0 no effect, 100 complete control); for Plant response rating, Blackgrass: scale 0 to 100, 0 no effect, 100 complete control
Outline: as §1

[4] = system: corn (Zea mays); details: Postemergence; for Corn plant response rating: scale 0 to 100 (0 no effect, 100 complete control); for Plant response rating, Corn: scale 0 to 100, 0 no effect, 100 complete control
Outline: as §1

[5] = system: galium (catchweed bedstraw, Galium aparine); details: Postemergence; for Plant response rating, Galium: scale 0 to 100, 0 no effect, 100 complete control
Outline: as §1

[6] = system: giant foxtail (Setaria faberii); details: Postemergence; for Foxtail, Giant plant response rating: scale 0 to 100 (0 no effect, 100 complete control); for Plant response rating, Foxtail, Giant: scale 0 to 100, 0 no effect, 100 complete control
Outline: as §1

[7] = system: johnsongrass (Sorghum halepense); details: Postemergence; for Plant response rating, Johnsongrass: scale 0 to 100, 0 no effect, 100 complete control
Outline: as §1

[8] = system: lambsquarters (Chenopodium album); details: Postemergence; for Plant response rating, Lambsquarters: scale 0 to 100, 0 no effect, 100 complete control
Outline: as §1

[9] = system: large (Lg) crabgrass (Digitaria sanguinalis); details: Postemergence; for Crabgrass, Large plant response rating: scale 0 to 100 (0 no effect, 100 complete control); for Plant response rating, Crabgrass, Large: scale 0 to 100, 0 no effect, 100 complete control
Outline: as §1

[10] = system: morningglory (Ipomoea coccinea); details: Postemergence; for Plant response rating, Morningglory: scale 0 to 100, 0 no effect, 100 complete control
Outline: as §1

[11] = system: oilseed rape (Brassica napus); details: Postemergence
Outline: as §1

[12] = system: pigweed (Amaranthus retroflexus); details: Postemergence; for Plant response rating, Pigweed: scale 0 to 100, 0 no effect, 100 complete control
Outline: as §1

[13] = system: ragweed (common ragweed, Ambrosia elatior); details: Postemergence; for Plant response rating, Ragweed: scale 0 to 100, 0 no effect, 100 complete control
Outline: as §1

[14] = system: soybean (Glycine max); details: Postemergence; for Plant response rating, Soybean: scale 0 to 100, 0 no effect, 100 complete control
Outline: as §1

[15] = system: velvetleaf (Abutilon theophrasti); details: Postemergence
Outline: as §1

[16] = system: waterhemp (common waterhemp, Amaranthus rudis); details: Postemergence; for Plant response rating, Waterhemp: scale 0 to 100, 0 no effect, 100 complete control
Outline: as §1

[17] = system: winter wheat (Triticum aestivum); details: Postemergence; for Plant response rating, Wheat: scale 0 to 100, 0 no effect, 100 complete control
Outline: as §1

[18] = system: yellow nutsedge (Cyperus esculentus); details: Postemergence; for Plant response rating, Nutsedge, Yellow: scale 0 to 100, 0 no effect, 100 complete control
Outline: as §1

[19] = 31 g ai/ha, scale 0 to 100 (0 no effect, 100 complete control)
[20] = 62 g ai/ha, scale 0 to 100, 0 no effect, 100 complete control

Structure (SMILES): FC(F)(Br)c1cc(-c2ccccc2Oc2ncc(Cl)cn2)no1 [Compound 162]
- Ryegrass, Italian plant response rating [1, 19]: 0
- Plant response rating, Ryegrass, Italian ([1]; 62 g ai/ha): 5
- Plant response rating, Ryegrass, Italian ([1]; 125 g ai/ha): 5
- Barnyardgrass plant response rating ([2]; 16 g ai/ha): 5
- Barnyardgrass plant response rating ([2]; 31 g ai/ha): 10
- Plant response rating, Barnyardgrass ([2]; 62 g ai/ha): 15
- Plant response rating, Barnyardgrass ([2]; 125 g ai/ha): 15
- Blackgrass plant response rating ([3]; 16 g ai/ha): 0
- Blackgrass plant response rating ([3]; 31 g ai/ha): 30
- Plant response rating, Blackgrass ([3]; 62 g ai/ha): 30
- Plant response rating, Blackgrass ([3]; 125 g ai/ha): 45
- Corn plant response rating ([4]; 16 g ai/ha): 5
- Corn plant response rating ([4]; 31 g ai/ha): 5
- Plant response rating, Corn ([4]; 62 g ai/ha): 5
- Plant response rating, Corn ([4]; 125 g ai/ha): 5
- Galium plant response rating [5, 19]: 60
- Plant response rating, Galium ([5]; 62 g ai/ha): 60
- Plant response rating, Galium ([5]; 125 g ai/ha): 80
- Foxtail, Giant plant response rating ([6]; 16 g ai/ha): 10
- Foxtail, Giant plant response rating ([6]; 31 g ai/ha): 10
- Plant response rating, Foxtail, Giant ([6]; 62 g ai/ha): 10
- Plant response rating, Foxtail, Giant ([6]; 125 g ai/ha): 20
- Johnsongrass plant response rating [7, 19]: 5
- Plant response rating, Johnsongrass ([7]; 62 g ai/ha): 10
- Plant response rating, Johnsongrass ([7]; 125 g ai/ha): 20
- Lambsquarters plant response rating [8, 19]: 65
- Plant response rating, Lambsquarters ([8]; 62 g ai/ha): 75
- Plant response rating, Lambsquarters ([8]; 125 g ai/ha): 95
- Crabgrass, Large plant response rating ([9]; 16 g ai/ha): 5
- Crabgrass, Large plant response rating ([9]; 31 g ai/ha): 5
- Plant response rating, Crabgrass, Large ([9]; 62 g ai/ha): 10
- Plant response rating, Crabgrass, Large ([9]; 125 g ai/ha): 20
- Morningglory plant response rating [10, 19]: 65
- Plant response rating, Morningglory ([10]; 62 g ai/ha): 75
- Plant response rating, Morningglory ([10]; 125 g ai/ha): 75
- Oilseed Rape plant response rating [11, 19]: 5
- Plant response rating, Oilseed Rape [11, 20]: 40
- Pigweed plant response rating [12, 19]: 90
- Plant response rating, Pigweed ([12]; 62 g ai/ha): 100
- Plant response rating, Pigweed ([12]; 125 g ai/ha): 100
- Ragweed plant response rating [13, 19]: 30
- Plant response rating, Ragweed ([13]; 62 g ai/ha): 40
- Plant response rating, Ragweed ([13]; 125 g ai/ha): 50
- Soybean plant response rating [14, 19]: 10
- Plant response rating, Soybean ([14]; 62 g ai/ha): 40
- Plant response rating, Soybean ([14]; 125 g ai/ha): 50
- Velvetleaf plant response rating [15, 19]: 40
- Plant response rating, Velvetleaf [15, 20]: 75
- Waterhemp plant response rating [16, 19]: 98
- Plant response rating, Waterhemp ([16]; 62 g ai/ha): 100
- Plant response rating, Waterhemp ([16]; 125 g ai/ha): 100
- Wheat plant response rating [17, 19]: 0
- Plant response rating, Wheat ([17]; 62 g ai/ha): 5
- Plant response rating, Wheat ([17]; 125 g ai/ha): 5
- Nutsedge, Yellow plant response rating [18, 19]: 0
- Plant response rating, Nutsedge, Yellow ([18]; 62 g ai/ha): 5
- Plant response rating, Nutsedge, Yellow ([18]; 125 g ai/ha): 10
